In patent US8288371B2, “Ortho pyrrolidine, benzyl-substituted heterocycle CCR1 antagonists for autoimmune diseases and inflammation” (Pharmacopeia, LLC, priority 2007, dated 2012):

Each compound was assayed against T1, human CCR1 (Homo sapiens, UniProt P32246) (assay: CCR1 binding protocol (SPA, [125I]-MIP-1α displacement)). Conditions: cell membrane expressing human CCR1, 0.1 nM [125I]-MIP-1α, 4 hours at ambient temperature; read-out: Relative potency (IC50).
T1 sequence (P32246 1-355): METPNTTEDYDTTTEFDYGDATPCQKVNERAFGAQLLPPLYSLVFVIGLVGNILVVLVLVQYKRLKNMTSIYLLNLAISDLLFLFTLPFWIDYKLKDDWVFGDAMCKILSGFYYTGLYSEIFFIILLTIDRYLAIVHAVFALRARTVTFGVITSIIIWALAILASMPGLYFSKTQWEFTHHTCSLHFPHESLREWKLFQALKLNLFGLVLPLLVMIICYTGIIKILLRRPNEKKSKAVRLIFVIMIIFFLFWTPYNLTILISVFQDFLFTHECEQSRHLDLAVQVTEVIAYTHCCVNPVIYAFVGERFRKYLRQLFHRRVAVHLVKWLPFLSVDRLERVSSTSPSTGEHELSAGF
Procedure: The following protocol was used to test compounds for CCR1 binding. A mixture, including scintillation proximity assay (SPA) beads and cell membrane expressing human CCR1, was prepared in assay buffer (130 mM NaCl+5 mM KCl+1 mM MnCl+50 mM Tris HCl at pH 7.4+0.1% bovine serum albumin (BSA)) at the ratio of 50 μg/ml membrane to 10 mg/ml SPA beads. 10 μl of the mixture was transferred to each well of a 384-well assay plate yielding a final concentration for the membrane and SPA beads of 0.5 μg/well and 100 μg/well, respectively
To generate different concentrations of the test compound, compound stocks were prepared using 10 step ½ log dilutions with a high concentration of 10 mM in DMSO and the lowest concentration being DMSO only without compound. An intermediate 40× dilution was then prepared in the assay buffer. The compound was then transferred at 10 μl/well to the assay plate. 0.5 nM [^125 I]-labeled macrophage inflammatory protein-1α (MIP-1α, an endogenous CCR1 ligand) in the assay buffer was transferred to the assay plate at 5 μl/well, for a final ligand concentration of 0.1 nM. The assay plate was then centrifuged at 2500 rpm for 2 minutes and incubated for 4 hours at ambient temperature, at which time the raw data was recorded using microbeta. The IC50 was then calculated using Graphpad Prism.
In the case of `Cc1noc(-c2ccccc2)c1NC(=O)N1CCC[C@@H]1c1nnc(C)n1Cc1ccc(Cl)cc1` [Compound 123], the IC50 is reported as under 0.05 µM. `COC1C[C@H](c2nnc(C)n2Cc2ccc(Cl)cc2)N(C(=O)N[C@H]2CCOc3cc(C(F)(F)F)ccc32)C1` (stereo partly drawn) [Compound 543] showed an IC50 of 0.05 to 0.5 µM. `O=C(Nc1ccc(SC(F)(F)F)cc1)N1CCC[C@@H]1c1ncnn1Cc1ccc(Cl)cc1` [Compound 74] gave an IC50 of 0.05 to 0.5 µM. With `Cc1nnc([C@H]2CCCN2C(=O)Nc2ccncn2)n1Cc1ccc(Cl)cc1` [Compound 258] the IC50 was 0.5 to 5 µM. Compound `Cc1nnc([C@H]2CCCN2C(=O)NC2CCCOc3cc(C(F)(F)F)ccc32)n1Cc1ccc(Cl)cc1` (stereo partly drawn) [Compound 177] has an IC50 of under 0.05 µM. `Cc1nnc([C@H]2CCCN2C(=O)Nc2ccccn2)n1Cc1ccc(Cl)cc1` [Compound 253] showed an IC50 of 0.5 to 5 µM. Compound `Cc1nnc([C@H]2CCCN2C(=O)N[C@H]2CCCOc3ccc(Cl)cc32)n1Cc1ccc(Cl)cc1` [Compound 156] has an IC50 of 0.05 to 0.5 µM. Work on `Cc1noc(C)c1NC(=O)N1CCC[C@@H]1c1nnc(C)n1Cc1ccc(Cl)cc1` [Compound 200] yielded an IC50 of under 0.05 µM. In the case of `O=C(Nc1ccc(Cl)cc1F)N1CCC[C@@H]1c1nncn1Cc1ccc(Cl)cc1` [Compound 556], the IC50 is reported as under 0.05 µM. Work on `Cc1nnc([C@H]2CCCN2C(=O)NC2(c3ccccc3)CC2)n1Cc1ccc(Cl)c(Cl)c1` [Compound 412] yielded an IC50 of under 0.05 µM. Compound `Cc1noc([C@H]2CCCN2C(=O)Nc2c(C)noc2C)c1Cc1ccc(Cl)cc1` [Compound 1] has an IC50 of under 0.05 µM. Compound `N#Cc1ccc2c(c1)OCC[C@@H]2NC(=O)N1CCC[C@@H]1c1nnc(CO)n1Cc1ccc(Cl)cc1` [Compound 338] has an IC50 of under 0.05 µM. Work on `Cc1onc(-c2ccccc2)c1NC(=O)N1CCC[C@@H]1c1ncnn1Cc1ccc(Cl)cc1` [Compound 62] yielded an IC50 of under 0.05 µM. In the case of `Cc1nnc([C@H]2CCCN2C(=O)N[C@H]2CCc3cc(C(F)(F)F)ccc32)n1Cc1ccc(Cl)cc1` [Compound 169], the IC50 is reported as under 0.05 µM. `Cc1nnc(C2C3CC3CN2C(=O)NC(c2ccccc2)c2ccccc2)n1Cc1ccc(Cl)cc1` (stereo not drawn) [Compound 547] showed an IC50 of 0.05 to 0.5 µM. Compound `Cc1nnc(C2C3CC3CN2C(=O)N[C@H]2CCOc3cc(C(F)(F)F)ccc32)n1Cc1ccc(Cl)cc1` (stereo partly drawn) [Compound 546] has an IC50 of 0.05 to 0.5 µM. With `Cc1nnc([C@H]2CCCN2C(=O)Nc2ccc(C(F)(F)F)cn2)n1Cc1ccc(Cl)cc1` [Compound 277] the IC50 was 0.05 to 0.5 µM. Compound `COC(=O)c1cc(C)cc(C)c1NC(=O)N1CCC[C@@H]1c1nnc(C)n1Cc1ccc(Cl)cc1` [Compound 211] has an IC50 of under 0.05 µM. In the case of `O=C(Nc1ccc(C(F)(F)F)cc1)N1CCC[C@@H]1c1nncn1Cc1ccc(Cl)cc1` [Compound 108], the IC50 is reported as under 0.05 µM. In the case of `Cc1onc(-c2ccccc2)c1NC(=O)N1CCC[C@@H]1c1nncn1Cc1ccc(Cl)cc1` [Compound 109], the IC50 is reported as under 0.05 µM. For `O=C(Nc1ccc(C(F)(F)F)cc1)N1CCC[C@@H]1c1nccn1Cc1ccccc1` [Compound 47], the IC50 was 0.5 to 5 µM. `CC(=O)N1CCC[C@@H](NC(=O)N2CCC[C@@H]2c2nnc(C)n2Cc2ccc(Cl)cc2)C1` [Compound 283] gave an IC50 of 0.05 to 0.5 µM. With `Cc1cc(C)c(S(C)(=O)=O)cc1NC(=O)N1CCC[C@@H]1c1nnc(C)n1Cc1ccc(Cl)cc1` [Compound 361] the IC50 was under 0.05 µM. In the case of `Cc1nnc([C@H]2CCCN2C(=O)Nc2cccc(Cl)c2)n1Cc1ccc(Cl)cc1` [Compound 163], the IC50 is reported as 0.05 to 0.5 µM. In the case of `Cc1nnc([C@H]2CCCN2C(=O)Nc2ccc(C(C)C)cc2C(F)(F)F)n1Cc1ccc(Cl)cc1` [Compound 278], the IC50 is reported as under 0.05 µM. With `O=C(N[C@H]1CCOc2cc(C(F)(F)F)ccc21)N1CCC[C@@H]1c1oncc1Cc1ccc(Cl)cc1` [Compound 4] the IC50 was 0.05 to 0.5 µM. Work on `Cc1nnc([C@H]2CCCN2C(=O)Nc2cc(-c3ccccc3)nn2C)n1Cc1ccc(Cl)cc1` [Compound 356] yielded an IC50 of under 0.05 µM. Work on `CNC(=O)c1cc(NC(=O)N2CCC[C@@H]2c2nnc(C)n2Cc2ccc(Cl)cc2)c(C)cc1C` [Compound 380] yielded an IC50 of under 0.05 µM. For `Cn1ncc(-c2ccccc2)c1NC(=O)N1CCC[C@@H]1c1ncnn1Cc1ccc(Cl)cc1` [Compound 69], the IC50 was 0.05 to 0.5 µM. `Cc1nnc([C@H]2CCCN2C(=O)Nc2ccc3c(c2)N(C)C(=O)CO3)n1Cc1ccc(Cl)cc1` [Compound 137] gave an IC50 of 0.05 to 0.5 µM. For `O=C(N[C@H]1CCS(=O)(=O)c2ccc(Cl)cc21)N1CCC[C@@H]1c1nnc(CO)n1Cc1ccc(Cl)cc1` [Compound 371], the IC50 was 0.05 to 0.5 µM. In the case of `CCc1nnc([C@H]2CCCN2C(=O)N[C@H]2CCOc3cc(C(F)(F)F)ccc32)n1Cc1ccc(Cl)cc1` [Compound 209], the IC50 is reported as under 0.05 µM. For `CC[C@H](Nc1c(N2CCC[C@@H]2c2nnc(C)n2Cc2ccc(Cl)cc2)c(=O)c1=O)c1ccc(C(F)(F)F)cc1` [Compound 589], the IC50 was 0.05 to 0.5 µM. Compound `Cc1nc(C(F)(F)F)ccc1NC(=O)N1CCC[C@@H]1c1nncn1Cc1ccc(Cl)cc1` [Compound 557] has an IC50 of under 0.05 µM. With `O=C(Nc1ccc(C(F)(F)F)cc1)N1CCC[C@@H]1c1ncncc1Cc1ccc(Cl)cc1` [Compound 23] the IC50 was 0.05 to 0.5 µM. With `Cc1cc(C)[n+]([O-])c(C)c1NC(=O)N1CCC[C@@H]1c1nnc(C)n1Cc1ccc(Cl)cc1` [Compound 520] the IC50 was under 0.05 µM. With `Cc1nnc([C@H]2CCCN2C(=O)Nc2ccc(OC(F)(F)F)cc2)n1Cc1ccc(Cl)cc1` [Compound 136] the IC50 was under 0.05 µM. Work on `Cc1nnc([C@H]2CC(=O)CN2C(=O)N[C@H]2CCOc3cc(C(F)(F)F)ccc32)n1Cc1ccc(Cl)cc1` [Compound 506] yielded an IC50 of under 0.05 µM. For `CCc1nnc([C@H]2CCCN2C(=O)Nc2ccc(C(F)(F)F)nc2C)n1Cc1ccc(Cl)cc1` [Compound 584], the IC50 was under 0.05 µM. For `Cc1nnc([C@H]2CCCN2C(=O)Nc2ccc(C(C)(C)C)cc2)n1Cc1ccc(Cl)cc1` [Compound 133], the IC50 was under 0.05 µM. Work on `CC[C@H](NC(=O)N1CCC[C@@H]1c1nnc(C)n1Cc1ccc(Br)cc1)c1ccc(C(F)(F)F)cc1` [Compound 578] yielded an IC50 of under 0.05 µM. In the case of `Cc1cc(C#N)ccc1NC(=O)N1CC(F)C[C@@H]1c1nnc(C)n1Cc1ccc(Cl)cc1` (stereo partly drawn) [Compound 581], the IC50 is reported as 0.05 to 0.5 µM. `Cc1nnc([C@H]2CCCN2C(=O)NCC2CN(S(C)(=O)=O)C2)n1Cc1ccc(Cl)cc1` [Compound 591] gave an IC50 of 0.5 to 5 µM. Compound `Cc1noc(C)c1N/C(=C\[N+](=O)[O-])N1CCC[C@@H]1c1nnc(C)n1Cc1ccc(Cl)cc1` [Compound 611] has an IC50 of under 0.05 µM. Work on `O=C(Nc1ccc(SC(F)(F)F)cc1)N1CCC[C@@H]1c1nccn1Cc1ccc(Cl)cc1` [Compound 40] yielded an IC50 of 0.05 to 0.5 µM. `CC1(C)CC[C@H](NC(=O)N2CCC[C@@H]2c2ncnn2Cc2ccc(Cl)cc2)c2ccccc21` [Compound 79] was tested, and the IC50 was 0.5 to 5 µM. In the case of `CNC(=O)c1ccc(F)c(NC(=O)N2CCC[C@@H]2c2nnc(C)n2Cc2ccc(Cl)cc2)c1` [Compound 301], the IC50 is reported as 0.05 to 0.5 µM. In the case of `Cc1nnc([C@H]2CCCN2c2c(N[C@H]3CCOc4cc(C(F)(F)F)ccc43)c(=O)c2=O)n1Cc1ccc(Cl)cc1` [Compound 530], the IC50 is reported as 0.05 to 0.5 µM. `C[C@@H](NC(=O)N1CCC[C@@H]1c1nnc(CO)n1Cc1ccc(Cl)cc1)c1ccc(Cl)cc1` [Compound 401] gave an IC50 of 0.05 to 0.5 µM. `Cc1nnc([C@H]2CCCN2C(=O)N[C@H]2CCOc3c(F)ccc(F)c32)n1Cc1ccc(Cl)cc1` [Compound 161] was tested, and the IC50 was 0.05 to 0.5 µM. In the case of `Cc1nnc([C@H]2CCCN2C(=O)Nc2ccc3c(c2)CC(C)O3)n1Cc1ccc(Cl)cc1` (stereo partly drawn) [Compound 274], the IC50 is reported as 0.05 to 0.5 µM. `CNS(=O)(=O)c1cc(NC(=O)N2CCC[C@@H]2c2nnc(C)n2Cc2ccc(Cl)cc2)c(C)cc1C` [Compound 484] gave an IC50 of under 0.05 µM. With `Cc1nnc([C@H]2CCCN2C(=O)N[C@H]2CCOc3c(F)cc(F)cc32)n1Cc1ccc(Cl)cc1` [Compound 153] the IC50 was under 0.05 µM. Work on `Cc1nnc([C@H]2CCCN2C(=O)Cc2cccc(Cl)c2)n1Cc1ccc(Cl)cc1` [Compound 497] yielded an IC50 of 0.05 to 0.5 µM. In the case of `Cc1nnc([C@H]2C[C@H](O)CN2C(=O)Nc2ccc(C(F)(F)F)cc2)n1Cc1ccc(Cl)cc1` [Compound 388], the IC50 is reported as 0.05 to 0.5 µM. In the case of `CNC(=O)c1cc(C)cc(C)c1NC(=O)N1CCC[C@@H]1c1nnc(C)n1Cc1ccc(Cl)cc1` [Compound 210], the IC50 is reported as under 0.05 µM. `O=C(NC1CCS(=O)(=O)c2ccccc21)N1CCC[C@@H]1c1nncn1Cc1ccc(Cl)cc1` (stereo partly drawn) [Compound 110] gave an IC50 of under 0.05 µM. For `Cc1nnc([C@H]2CCCN2C(=O)NCc2ccc(Cl)cc2Cl)n1Cc1ccc(Cl)cc1` [Compound 202], the IC50 was under 0.05 µM. In the case of `O=C(N[C@H]1CCOc2cc(C(F)(F)F)ccc21)N1CCC[C@@H]1c1ncncc1Cc1ccc(Cl)cc1` [Compound 24], the IC50 is reported as 0.05 to 0.5 µM. Compound `O=C(NC1CCc2cc(C(F)(F)F)ccc21)N1CCC[C@@H]1c1ncnn1Cc1ccc(Cl)cc1` (stereo partly drawn) [Compound 86] has an IC50 of 0.05 to 0.5 µM. `Cc1nnc([C@H]2CCCN2C(=O)Nc2cccc(-c3ccnn3C)c2)n1Cc1ccc(Cl)cc1` [Compound 620] was tested, and the IC50 was 0.5 to 5 µM. For `NC(=O)c1nnc([C@H]2CCCN2C(=O)N[C@H]2CCOc3cc(C(F)(F)F)ccc32)n1Cc1ccc(Cl)cc1` [Compound 489], the IC50 was 0.5 to 5 µM. `Cc1ccc(NC(=O)N2CCC[C@@H]2c2nnc(C)n2Cc2ccc(Cl)cc2)c(Cl)n1` [Compound 394] showed an IC50 of 0.05 to 0.5 µM.
